Measured values: paper PMC3577938 (Organic & biomolecular chemistry, 2013)

Columns and labels:
Format in all cases: cell-based
[1] = target: T1, human TLR8 (Homo sapiens, UniProt Q9NR97); experiment: Human TLR8-specific reporter gene assay; conditions: for Agonistic Activity (μM) TLR8: EC50 in human TLR8-specific reporter gene assay, Inactive = EC50 >100 μM; for TLR8-agonistic potency/activity (in words): hTLR8 reporter gene assay
T1 sequence (Q9NR97 27-1041): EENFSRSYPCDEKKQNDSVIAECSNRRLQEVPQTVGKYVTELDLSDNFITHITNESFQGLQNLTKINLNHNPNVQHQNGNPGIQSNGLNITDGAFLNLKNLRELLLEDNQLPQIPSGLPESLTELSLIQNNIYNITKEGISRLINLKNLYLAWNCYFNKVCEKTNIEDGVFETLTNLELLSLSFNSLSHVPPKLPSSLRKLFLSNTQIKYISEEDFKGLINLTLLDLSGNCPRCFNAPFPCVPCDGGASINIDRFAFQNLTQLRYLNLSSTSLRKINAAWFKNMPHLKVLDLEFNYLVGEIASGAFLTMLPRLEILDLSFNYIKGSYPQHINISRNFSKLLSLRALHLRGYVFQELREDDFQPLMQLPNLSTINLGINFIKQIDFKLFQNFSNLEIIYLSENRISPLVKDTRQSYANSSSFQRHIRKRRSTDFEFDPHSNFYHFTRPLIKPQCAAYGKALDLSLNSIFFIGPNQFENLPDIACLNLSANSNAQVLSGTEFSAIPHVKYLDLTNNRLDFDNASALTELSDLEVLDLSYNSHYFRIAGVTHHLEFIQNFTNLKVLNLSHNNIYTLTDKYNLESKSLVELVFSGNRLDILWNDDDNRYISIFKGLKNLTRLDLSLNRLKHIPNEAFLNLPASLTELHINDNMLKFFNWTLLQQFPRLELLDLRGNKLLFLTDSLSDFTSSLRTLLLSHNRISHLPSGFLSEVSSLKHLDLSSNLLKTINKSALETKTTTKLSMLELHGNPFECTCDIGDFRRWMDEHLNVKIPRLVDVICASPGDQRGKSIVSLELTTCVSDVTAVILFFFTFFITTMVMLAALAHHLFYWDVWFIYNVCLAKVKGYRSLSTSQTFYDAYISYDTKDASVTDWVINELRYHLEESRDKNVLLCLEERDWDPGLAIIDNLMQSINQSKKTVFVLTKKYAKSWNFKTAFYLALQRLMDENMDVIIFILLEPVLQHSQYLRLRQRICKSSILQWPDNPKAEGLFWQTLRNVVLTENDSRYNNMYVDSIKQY

[2] = target: T2, human TLR7 (Homo sapiens, UniProt Q9NYK1); experiment: Human TLR7-specific reporter gene assay; conditions: for Agonistic Activity (μM) TLR7: EC50 in human TLR7-specific reporter gene assay, Inactive = EC50 >100 μM
T2 sequence (Q9NYK1 27-1049): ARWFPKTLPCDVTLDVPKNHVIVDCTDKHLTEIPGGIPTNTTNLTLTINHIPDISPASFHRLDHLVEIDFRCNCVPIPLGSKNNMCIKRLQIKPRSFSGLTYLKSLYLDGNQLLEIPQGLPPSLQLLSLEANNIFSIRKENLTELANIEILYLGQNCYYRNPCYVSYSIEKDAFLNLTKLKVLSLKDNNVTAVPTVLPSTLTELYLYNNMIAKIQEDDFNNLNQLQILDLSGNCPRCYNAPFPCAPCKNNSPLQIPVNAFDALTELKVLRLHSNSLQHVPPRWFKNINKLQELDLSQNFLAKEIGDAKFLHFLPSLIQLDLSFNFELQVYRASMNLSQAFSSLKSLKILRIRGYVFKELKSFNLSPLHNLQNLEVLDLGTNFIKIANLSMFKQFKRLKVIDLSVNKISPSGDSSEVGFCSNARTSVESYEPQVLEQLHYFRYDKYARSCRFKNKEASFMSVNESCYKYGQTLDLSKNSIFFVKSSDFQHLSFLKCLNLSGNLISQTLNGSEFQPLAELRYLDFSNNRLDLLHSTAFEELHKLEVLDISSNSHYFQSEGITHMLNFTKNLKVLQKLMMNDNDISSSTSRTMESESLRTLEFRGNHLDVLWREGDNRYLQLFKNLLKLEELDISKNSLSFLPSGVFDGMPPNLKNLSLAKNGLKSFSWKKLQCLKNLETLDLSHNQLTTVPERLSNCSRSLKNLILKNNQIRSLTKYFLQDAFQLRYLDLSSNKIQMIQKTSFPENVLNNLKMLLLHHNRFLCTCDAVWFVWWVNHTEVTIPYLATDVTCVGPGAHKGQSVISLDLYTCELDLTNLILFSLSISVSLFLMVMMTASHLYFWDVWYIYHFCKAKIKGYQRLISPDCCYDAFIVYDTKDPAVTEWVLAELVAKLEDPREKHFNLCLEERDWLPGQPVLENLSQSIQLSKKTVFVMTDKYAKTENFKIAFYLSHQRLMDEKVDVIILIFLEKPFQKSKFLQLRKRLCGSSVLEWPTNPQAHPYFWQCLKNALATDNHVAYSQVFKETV

[3] = tested on: human TLR7 or human TLR8; conditions: primary TLR8/TLR7 reporter gene assays, receptor not given

| SMILES | Agonistic Activity (μM) TLR8 [1] | Agonistic Activity (μM) TLR7 [2] | other results |
| --- | --- | --- | --- |
| CCCCCCCc1nc2c(N)nc3ccccc3c2s1 [Compound 8g, 2-heptylthiazolo[4,5-c]quinolin-4-amine] | Inactive | Inactive | – |
| CCCc1cn(-c2ccc3nc(N)c4nc(CCC)sc4c3c2)nn1 [Compound 12d, 2-propyl-8-(4-propyl-1H-1,2,3-triazol-1-yl)thiazolo[4,5-c]quinolin-4-amine] | Inactive | Inactive | – |
| CCCc1nc2c(N)nc3ccc(-n4cc([Si](C)(C)C)nn4)cc3c2s1 [Compound 12f, 2-propyl-8-(4-(trimethylsilyl)-1H-1,2,3-triazol-1-yl)thiazolo[4,5-c]quinolin-4-amine] | – | Inactive | – |
| CCCc1nc2c(N)nc3ccc(-n4cc(C(C)(C)O)nn4)cc3c2s1 [Compound 12a, 2-(1-(4-amino-2-propylthiazolo[4,5-c]quinolin-8-yl)-1H-1,2,3-triazol-4-yl)propan-2-ol] | Inactive | Inactive | – |
| CCCCCc1nc2c(N)nc3ccccc3c2s1 [Compound 8e, 2-pentylthiazolo[4,5-c]quinolin-4-amine] | – | – | TLR8-agonistic potency/activity (in words) [1]: attenuation of potency |
| CCCc1nc2c(N)nc3ccc(-n4ccnn4)cc3c2s1 [Compound 12g, 2-propyl-8-(1H-1,2,3-triazol-1-yl)thiazolo[4,5-c]quinolin-4-amine] | Inactive | Inactive | – |
| CCCCCc1cn(-c2ccc3nc(N)c4nc(CCC)sc4c3c2)nn1 [Compound 12e, 8-(4-pentyl-1H-1,2,3-triazol-1-yl)-2-propylthiazolo[4,5-c]quinolin-4-amine] | Inactive | Inactive | – |
| CCCc1nc2c(N)nc3ccc(N)cc3c2s1 [Compound 10, 2-propylthiazolo[4,5-c]quinoline-4,8-diamine] | – | – | agonistic activity (in words) [3]: attenuated activity relative to 8c |
| CCCc1nc2c(N)nc3ccc(-n4cc(-c5ccccc5)nn4)cc3c2s1 [Compound 12c, 8-(4-phenyl-1H-1,2,3-triazol-1-yl)-2-propylthiazolo[4,5-c]quinolin-4-amine] | Inactive | Inactive | – |
| CC(C)c1nc2c(N)nc3ccccc3c2s1 [Compound 8i, 2-isopropylthiazolo[4,5-c]quinolin-4-amine] | – | – | reduction in TLR8-agonistic potency ([1]; isopropyl at C2, fold reduction): approximately ten-fold; attenuation of activity in TLR7-specific reporter gene assays ([2]; isopropyl at C2, fold attenuation): about two-fold |
| CCCCCCc1nc2c(N)nc3ccccc3c2s1 [Compound 8f, 2-hexylthiazolo[4,5-c]quinolin-4-amine] | Inactive^a | Inactive | – |
| Nc1nc2ccccc2c2sc(CCCC(F)(F)F)nc12 [Compound 8q, 2-(4,4,4-trifluorobutyl)thiazolo[4,5-c]quinolin-4-amine] | – | – | TLR8-agonistic potency/activity (in words) [1]: decrease in potency |
| CCCc1nc2c(N)nc3ccc(N=[N+]=[N-])cc3c2s1 [Compound 11, 8-azido-2-propylthiazolo[4,5-c]quinolin-4-amine] | – | – | agonistic activity (in words) [3]: inactive |
| CCCCCCCCCc1nc2c(N)nc3ccccc3c2s1 [Compound 8h, 2-nonylthiazolo[4,5-c]quinolin-4-amine] | Inactive | Inactive | – |
| CCCc1nc2c(N)nc3ccc(-n4cc(CO)nn4)cc3c2s1 [Compound 12b, (1-(4-amino-2-propylthiazolo[4,5-c]quinolin-8-yl)-1H-1,2,3-triazol-4-yl)methanol] | Inactive | Inactive | – |

The next lines start with results.

| Agonistic Activity (μM) TLR8 [1] | Agonistic Activity (μM) TLR7 [2] | SMILES | other results |
| --- | --- | --- | --- |
| Inactive | Inactive | CCCc1nc2c(NS(=O)(=O)CC)nc3ccccc3c2s1 [Compound 15s, N-(2-propylthiazolo[4,5-c]quinolin-4-yl)ethanesulfonamide] | – |
| Inactive | Inactive | CCCCCCCCCCCCCCCCNc1nc2ccccc2c2sc(CCC)nc12 [Compound 15c, N-hexadecyl-2-propylthiazolo[4,5-c]quinolin-4-amine] | – |
| Inactive | Inactive | CCCc1nc2c(NS(=O)(=O)CCC)nc3ccccc3c2s1 [Compound 15t, N-(2-propylthiazolo[4,5-c]quinolin-4-yl)propane-1-sulfonamide] | – |
| – | Inactive | C#CCCC(=O)Nc1nc2ccccc2c2sc(CCC)nc12 [Compound 15l, N-(2-propylthiazolo[4,5-c]quinolin-4-yl)pent-4-ynamide] | – |
| Inactive | Inactive | CCCc1nc2c(NC(=O)OCC)nc3ccccc3c2s1 [Compound 15n, ethyl (2-propylthiazolo[4,5-c]quinolin-4-yl)carbamate] | – |
| Inactive | Inactive | CCCCCCCCOC(=O)Nc1nc2ccccc2c2sc(CCC)nc12 [Compound 15p, octyl (2-propylthiazolo[4,5-c]quinolin-4-yl)carbamate] | – |
| – | Inactive | CCCc1nc2c(NC(C)=O)nc3ccccc3c2s1 [Compound 15e, N-(2-propylthiazolo[4,5-c]quinolin-4-yl)acetamide] | TLR8-agonistic potency/activity (in words) [1]: virtually inactive |
| Inactive | Inactive | CCCCOC(=O)Nc1nc2ccccc2c2sc(CCC)nc12 [Compound 15o, butyl (2-propylthiazolo[4,5-c]quinolin-4-yl)carbamate] | – |
| – | Inactive | CCCc1nc2c(NS(C)(=O)=O)nc3ccccc3c2s1 [Compound 15r, N-(2-propylthiazolo[4,5-c]quinolin-4-yl)methanesulfonamide] | – |
| Inactive | Inactive | CCCCS(=O)(=O)Nc1nc2ccccc2c2sc(CCC)nc12 [Compound 15u, N-(2-propylthiazolo[4,5-c]quinolin-4-yl)butane-1-sulfonamide] | – |
| Weak | Inactive | CCCc1nc2c(NC(=O)OC)nc3ccccc3c2s1 [Compound 15m, methyl (2-propylthiazolo[4,5-c]quinolin-4-yl)carbamate] | – |
| – | Inactive | CCCc1nc2c(NC(=O)CCN=[N+]=[N-])nc3ccccc3c2s1 [Compound 15k, 3-azido-N-(2-propylthiazolo[4,5-c]quinolin-4-yl)propanamide] | – |
| Inactive | Inactive | CCCc1nc2c(NS(=O)(=O)c3ccc(C)cc3)nc3ccccc3c2s1 [Compound 15v, 4-methyl-N-(2-propylthiazolo[4,5-c]quinolin-4-yl)benzenesulfonamide] | – |
